Experimental data taken from US6194416A, “Heterocyclic compounds and their use” (Eli Lilly and Company, priority 1997, dated 2001).

Assays:
[1] = target: nicotinic receptors; assay: Nicotinic channel receptor binding: [3H]-cystine binding to crude synaptic membranes from whole rat brain; details: 1.25 nM [3H-cystine], about 60 min, about 4° C.
Protocol: Nicotinic Channel Receptor Binding Protocol:
The activity of the compounds claimed herein at the nicotinic receptor can be accomplished by the following assay.
Binding of […] to nicotinic receptors was accomplished using crude synaptic membrane preparations from whole rat brain (Pabreza et al. Molecular Pharmacol., 1990, 39:9). Washed membranes were stored at about -80° C. prior to use. Frozen aliquots were slowly thawed and resuspended in 20 volumes of buffer (containing: […] NaCl, 5 mM KCl, 2 mM MgCl2, 2 mM Tris-Cl, ph 7.4 @4° C.). After centrifuging at 20,000×g for 15 minutes, the pellets were resuspended in about 30 volumes of buffer. Homogenate (containing about 125-150 ug protein) was added to tubes containing concentrations of test compound and [^3 H-cystine] (1.25 nM) in a final volume of 500 uL. Samples were incubated for about 60 minutes at about 4° C., then rapidly filtered through GF/B filters presoaked in 0.5% polyethylimine using 3×4 mL of ice cold buffer. The filters were counted.

[2] = target: muscarinic acetylcholine receptors; assay: Inhibition of specific binding of 3H-Oxotremorine-M (3H-Oxo) to rat cortex membranes; set-up: species or system male Wistar rats; details: 1.0 nM 3H-Oxotremorine, 30 min, 25° C., pH 7.4
From the text: The pharmacological properties of the compounds of the invention can be illustrated by determining their capability to inhibit the specific binding of ^3 H-Oxotremorine-M (^3 H-Oxo). Birdsdall N. J. M., Hulme E. C., and Burgen A. S. V. (1980). "The Character of Muscarinic Receptors in Different Regions of the Rat Brain". Proc. Roy. Soc. London (Series B) 207,1.
^3 H-Oxo labels muscarinic receptor in the CNS (with a preference for agonist domains of the receptors). Three different sites are labeled by ^3 H-Oxo. […] Using the present experimental conditions only the high and medium affinity sites are determined.
The inhibitory effects of compounds on ^3 H-oxo binding reflects the affinity for muscarinic acetylcholine receptors.
(§1) All preparations are performed at 0-4° C. unless otherwise indicated. Fresh cortex (0.1-1 g) from male Wistar rats (150-250 g) is homogenized for 5-10 s in 10 mL 20 nM Hepes pH: 7.4, with an Ultra-Turrax homogenizer. The homogenizer is rinsed with 10 mL of buffer and the combined suspension centrifuged for 15 min. at 40,000×g. The pellet is washed three times with buffer. In each step the pellet is homogenized as before in 2×10 mL of buffer and centrifuged for 10 min. at 40,000×g.
The final pellet is homogenized in 20 mM Hepes pH: 7.4 (100 mL per g of original tissue) and used for binding assay. Aliquots of 0.5 mL is added 25 μL of test solution and 25 μL of ^3 H-Oxotremorine (1.0 nM, final concentration) mixed and incubated for 30 min. at 25° C. Non-specific binding is determined in triplicate using arecoline (1 μg/mL, final concentration) as the test substance. After incubation samples are added 5 mL of ice-cold buffer and poured directly onto Whatman GF/C glass fiber filters under suction and immediately washed 2 times with 5 mL of ice-cold buffer. The amount of radioactivity on the filters are determined by conventional liquid scintillation counting. Specific binding is total binding minus non specific binding.
Test substances are dissolved in 10 mL water (if necessary heated on a steam-bath for less than 5 min.) at a concentration of 2.2 mg/mL. 25-75% inhibition of specific binding must be obtained before calculation of IC50. The test value will be given as IC50 (the concentration (nM) of the test substance which inhibits the specific binding of ^3 H-oxo by 50%). IC50 =(applied test substance concentration) x([…])nM where Co is specific binding in control assays and Cx is the specific binding in the test assay. (The calculations assume normal mass-action kinetics).

[3] = target: T1, muscarinic receptors (M1-site, pirenzepine sensitive site) (Rattus norvegicus, UniProt P08482); assay: Inhibition of 3HPRZ (pirenzepine, [N-methyl-3H]) binding to rat cerebral cortex membranes; set-up: species or system male Wistar rats; details: rat cerebral cortex, 1.0 nM 3HPRZ, 60 min, 20° C., pH 7.4; read-out: 3HPRZ IC50
T1 construct: from tissue; host or cells: cerebral cortex membranes of male Wistar rats
T1 sequence (P08482 1-460): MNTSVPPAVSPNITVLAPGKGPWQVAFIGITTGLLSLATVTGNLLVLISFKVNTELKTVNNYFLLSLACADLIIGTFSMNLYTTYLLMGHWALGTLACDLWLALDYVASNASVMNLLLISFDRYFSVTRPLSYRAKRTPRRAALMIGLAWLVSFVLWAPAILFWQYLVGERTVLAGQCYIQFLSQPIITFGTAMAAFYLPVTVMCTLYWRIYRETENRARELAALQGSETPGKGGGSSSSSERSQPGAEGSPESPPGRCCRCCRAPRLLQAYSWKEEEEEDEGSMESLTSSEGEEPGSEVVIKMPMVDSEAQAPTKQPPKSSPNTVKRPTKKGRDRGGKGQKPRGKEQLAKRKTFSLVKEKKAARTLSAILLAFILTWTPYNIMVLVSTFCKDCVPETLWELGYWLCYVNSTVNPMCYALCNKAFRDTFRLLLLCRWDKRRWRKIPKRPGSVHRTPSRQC
Protocol: Furthermore the pharmacological properties of the compounds of the invention can also be illustrated by determining their capability to inhibit ^3 HPRZ (pirenzepine, [N-methyl-^3 H]) binding to rat cerebral cortex membranes.
Pirenzepine binds selectively to subtype of muscarinic receptors. Historically the type is named the M1 -site, whereas pirenzepine sensitive site would be more appropriate.
as §1, with “cortex ([…])” for “cortex (0.1-1 g)”, “rats (150-200” for “rats (150-250”, “20 mM” for “20 nM”, “with 2×10” for “with 10”, “in 3×10” for “in 2×10”
The final pellet is homogenized in 20 MM Hepes pH: 7.4 (100 mL per g of original tissue) and used for binding assay. Aliquots of 0.5 mL is added 20 μL of test solution and 25 μL of ^3 HPRZ (1.0 nM, final conc.), mixed and incubated for 60 min. at 20° C. Non-specific binding is determined in triplicate using atropine (1.0 μg/mL, final conc.) as the test substance. After incubation samples are added 5 mL of ice-cold buffer and poured directly onto Whatman GF/C glass fiber filters under suction and immediately washed 2 times with 5 mL of ice-cold buffer.
The amount of radioactivity on the filters are determined by conventional liquid scintillation counting. Specific binding is total binding minus non-specific binding.
Test substances are dissolved in 10 mL water, at a concentration of 0.22 mg/mL. 25-75% inhibition of specific binding must be obtained before calculation of IC50.
The test value will be given as IC50 (the concentration (nM) of the test substance which inhibits the specific binding of ^3 HPRZ by 50%). IC50 =(applied test substance concentration) x(Cx /Co -Cx)nM where Co is specific binding in control assays and Cx is the specific binding in the test assay. (The calculations assume normal mass-action kinetics).

[4] = tested on: M1-sites of muscarinic receptors; details: general statement; cited from earlier work
[5] = tested on: M2-sites of muscarinic receptors; details: general statement; cited from earlier work

Q: What does the source list for `c1cnc(O[C@H]2CN3CCC[C@@H]2C3)cn1` (relative stereo) [Compound 21, 2-[endo-(+,-)-6-(1-azabicyclo[3.2.1]octyloxy)]-pyrazine]?
A: Ki [1]: 130 nM; IC50 [2]: 26 nM; IC50 [3]: 123 nM

Q: Which Ki [1] does the source give for `Clc1cncc(O[C@@H]2CN3CCC[C@H]2C3)n1` (relative stereo) [Compound 22, 6-Chloro-2-[endo-(+,-)-6-(1-azabicyclo[3.2.1]octyloxy)]-pyrazine] here?
A: 210 nM

Q: And the IC50 [2]?
A: 140 nM

Q: And the IC50 [3]?
A: 52 nM

Q: Which Ki [1] does the source give for `C[N+](C)(C)CCOc1cnccn1` [Compound 27, 2-(2-Trimethylaminoethoxy)pyrazine iodide] here?
A: 110 nM

Q: For `CN1CCN(CC(=O)N2c3ccccc3C(=O)Nc3cccnc32)CC1` [pirenzepine], which muscarinic subtype selectivity [4] is on record?
A: selective for M1 -sites

Q: What about the “interaction with M2-sites” value [5] of the same compound?
A: also interact with M2 -sites
